Each structure is given as a SMILES string.

Results on 20 molecules are retold here after US11622970B2, “BCL-2 inhibitors and their use as pharmaceuticals” (PRELUDE THERAPEUTICS INCORPORATED, priority 2020, dated 2023).

Sequence of BCL-2 recombinant protein (P10415 whole entry): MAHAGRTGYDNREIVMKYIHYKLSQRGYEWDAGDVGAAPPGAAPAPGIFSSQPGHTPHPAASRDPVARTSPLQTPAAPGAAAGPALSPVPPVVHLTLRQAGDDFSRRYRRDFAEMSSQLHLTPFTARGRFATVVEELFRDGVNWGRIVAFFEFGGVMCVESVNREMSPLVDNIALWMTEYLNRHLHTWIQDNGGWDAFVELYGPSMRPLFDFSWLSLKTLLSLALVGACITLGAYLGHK

The first experiment has as its target BCL-2 recombinant protein (Homo sapiens, UniProt P10415). The experiment is described as follows: Cell free Bcl-2:Bak affinity assay (Bcl-2 Bak), HTRF competition of FAM-Bak peptide. The experiment is classed as binding. The note with it: 1 μM compound, 4 nM BCL-2 recombinant protein, 100 nM FAM-Bak, read-out: potency (% inhibition at 1 μM). As to the method: Biological Assays: Cell Free Bcl-2:Bak Affinity Assay (Bcl-2 Bak)
The assay is based on the competition of fluorescently labeled peptide binding to BCL-2 and the binding is monitored by HTRF signals between anti-GST-Tb and FAM-peptide using GST-Tag BCL proteins. Testing compounds were dissolved in DMSO at 10 mM and tested in 10-concentration IC50 mode. The compounds of interest in DMSO were added in 3-fold serial dilution to each well containing 4 nM of BCL-2 recombinant protein, 20 mM K Phosphate, pH 7.5, 50 mM NaCl, 1 mM EDTA, 0.005% Triton X-100, by using acoustic technology (Labcyte echo 550), After 10 minutes incubation at room temperature, 100 nM of FAM-Bak was added and incubated for another 10 minutes before addition of Anti-GST-Tb. The plate was then sealed and further incubated at room temperature for 60 minutes in the dark before reading. Percentage of inhibition was calculated by % inhibition=100×(FDMSO−F)/(FDMSO−FPC), in which FDMSO is DMSO control and FPC is a positive control. IC50 values were determined from dose-response curve by fitting the percent inhibition against compound concentration using GraphPad Prism software.
On the technique in general: Time-resolved FRET reads energy transfer from a long-lived donor to a nearby acceptor.
Turning to `Cn1ccc(-c2nc(C(=O)NS(=O)(=O)c3ccc(N4CCN(CC5=C(c6ccc(Cl)cc6)CC(C)(C)CC5)CC4)cc3)ccc2F)cc1=O` [Example 56, N-[4-[4-[[2-(4-Chlorophenyl)-4,4-dimethylcyclohexen-1-yl]methyl]piperazin-1-yl]phenyl]sulfonyl-3-fluoro-1′-methyl-2′-oxo-1′,2′-dihydro-[2,4′-bipyridine]-6-carboxamide], the inhibition (usually the share of the control response that was lost under treatment) at 1 µM fell in the range of 50 to 90%.

For `CC1(C)CCC(CN2CCN(c3ccc(S(=O)(=O)NC(=O)c4ccc5ncccc5c4)cc3)CC2)=C(c2ccc(Cl)cc2)C1` [Example 5, N-([4-[4-[[2-(4-chlorophenyl)-4,4-dimethylcyclohexen-1-yl]methyl]piperazin-1-yl]phenyl]sulfonyl)quinoline-6-carboxamide], the inhibition at 1 µM lay within 50 to 90%.

On to `COc1ncc(-c2nc(C(=O)NS(=O)(=O)c3ccc(N4CCN(CC5=C(c6ccc(Cl)cc6)CC(C)(C)CC5)CC4)cc3)ccc2F)cn1` [Example 57, N-[4-[4-[[2-(4-Chlorophenyl)-4,4-dimethylcyclohexen-1-yl]methyl]piperazin-1-yl]phenyl]sulfonyl-5-fluoro-6-(2-methoxypyrimidin-5-yl)pyridine-2-carboxamide], for which the inhibition at 1 µM lay in the range of 50 to 90%.

With `CC1(C)CCC(CN2CCN(c3ccc(S(=O)(=O)NC(=O)c4cnc5ccccc5c4)cc3)CC2)=C(c2ccc(Cl)cc2)C1` [Example 9, N-((4-(4-((4′-chloro-5,5-dimethyl-3,4,5,6-tetrahydro-[1,1′-biphenyl]-2-yl)methyl)piperazin-1-yl)phenyl)sulfonyl)quinoline-3-carboxamide], the inhibition at 1 µM was in the range of 50 to 90%.

Consider `CC1(C)CCC(CN2CCN(c3ccc(S(=O)(=O)NC(=O)c4ccc(F)c(-c5ccc6[nH]nnc6c5)n4)cc3)CC2)=C(c2ccc(Cl)cc2)C1` [Example 49, 6-(1H-benzo[d][1,2,3]triazol-5-yl)-N-[4-[4-[[2-(4-chlorophenyl)-4,4-dimethylcyclohexen-1-yl]methyl]piperazin-1-yl]phenyl]sulfonyl-5-fluoro pyridine-2-carboxamide], for which the inhibition at 1 µM is > 90%.

With `Cc1ncc(C(=O)NS(=O)(=O)c2ccc(N3CCN(CC4=C(c5ccc(Cl)cc5)CC(C)(C)CC4)CC3)cc2)cn1` [Example 8, N-([4-[4-[[2-(4-chlorophenyl)-4,4-dimethylcyclohexen-1-yl]methyl]piperazin-1-yl]phenyl]sulfonyl)-2-methylpyrimidine-5-carboxamide], the inhibition at 1 µM lay within 50 to 90%.

Turning to `CC1(C)CCC(CN2CCN(c3ccc(S(=O)(=O)NC(=O)c4ccc(F)c(-c5cnc6c(c5)CC(=O)N6)n4)cc3)CC2)=C(c2ccc(Cl)cc2)C1` [Example 47, N-[4-[4-[[2-(4-chlorophenyl)-4,4-dimethylcyclohexen-1-yl]methyl]piperazin-1-yl]phenyl]sulfonyl-5-fluoro-6-(2-oxo-2,3-dihydro-1H-pyrrolo[2,3-b]pyridin-5-yl)pyridine-2-carboxamide], the inhibition at 1 µM fell in the range of 50 to 90%.

Turning to `CC1(C)CCC(CN2CCN(c3ccc(S(=O)(=O)NC(=O)c4ccc(F)c(-n5ccnc5)n4)cc3)CC2)=C(c2ccc(Cl)cc2)C1` [Example 46, N-[4-[4-[[2-(4-chlorophenyl)-4,4-dimethylcyclohexen-1-yl]methyl]piperazin-1-yl]phenyl]sulfonyl-5-fluoro-6-(1H-imidazol-1-yl)pyridine-2-carboxamide], the inhibition at 1 µM was 50 to 90%.

On to `CC1(C)CCC(CN2CCN(c3ccc(S(=O)(=O)NC(=O)c4ccc5ccsc5n4)cc3)CC2)=C(c2ccc(Cl)cc2)C1` [Example 27, N-([4-[4-[[2-(4-chlorophenyl)-4,4-dimethylcyclohexen-1-yl]methyl]piperazin-1-yl]phenyl]sulfonyl)thieno[2,3-b]pyridine-6-carboxamide], for which the inhibition at 1 µM lay within 50 to 90%.

The experiment is the same for the next values; noted with them: 10-concentration IC50 mode, 4 nM BCL-2 recombinant protein, 100 nM FAM-Bak, read-out: potency (IC50).
Regarding `Cc1c(Cl)c(C(=O)NS(=O)(=O)c2ccc(N3CCN(CC4=C(c5ccc(Cl)cc5)CC(C)(C)CC4)CC3)cc2Oc2cnc3[nH]ccc3c2)cc([N+](=O)[O-])c1NCC1CCOCC1` [Example 80, 2-Chloro-N-[4-[4-[[2-(4-chlorophenyl)-4,4-dimethylcyclohexen-1-yl]methyl]piperazin-1-yl]-2-(1H-pyrrolo[2,3-b]pyridin-5-yloxy)phenyl]sulfonyl-3-methyl-5-nitro-4-(oxan-4-ylmethylamino)benzamide], the IC50 (commonly the concentration that gives 50% inhibition) was < 10 nM.

For `CC1(C)CCC(CN2CCN(c3ccc(S(=O)(=O)NC(=O)c4ccc([N+](=O)[O-])c(COc5ccc(Cl)cc5)c4)c(Oc4cnc5[nH]ccc5c4)c3)CC2)=C(c2ccc(Cl)cc2)C1` [Example 95, 3-[(4-Chlorophenoxy)methyl]-N-[4-[4-[[2-(4-chlorophenyl)-4,4-dimethylcyclohexen-1-yl]methyl]piperazin-1-yl]-2-(1H-pyrrolo[2,3-b]pyridin-5-yloxy)phenyl]sulfonyl-4-nitrobenzamide], the IC50 was 100 to 1000 nM.

`Cc1cn(C)nc1C(=O)NS(=O)(=O)c1ccc(N2CCN(CC3=C(c4ccc(Cl)cc4)CC(C)(C)CC3)CC2)cc1Oc1cnc2[nH]ccc2c1` [Example 76, N-[4-[4-[[2-(4-chlorophenyl)-4,4-dimethylcyclohexen-1-yl]methyl]piperazin-1-yl]-2-(1H-pyrrolo[2,3-b]pyridin-5-yloxy)phenyl]sulfonyl-1,4-dimethylpyrazole-3-carboxamide]: the half-maximal inhibitory concentration (IC50) fell in the range of 10 to 100 nM.

Consider `CC1(C)CCC(CN2CCN(c3ccc(S(=O)(=O)NC(=O)c4ccc(NCC5CCOCC5)c([N+](=O)[O-])c4)c(Oc4cnc5[nH]ccc5c4)c3)CC2)=C(c2ccc(Cl)cc2)C1` [Example 100, N-[4-[4-[[2-(4-chlorophenyl)-4,4-dimethylcyclohexen-1-yl]methyl]piperazin-1-yl]-2-(1H-pyrrolo[2,3-b]pyridin-5-yloxy)phenyl]sulfonyl-3-nitro-4-(oxan-4-ylmethylamino)benzamide], for which the half-maximal inhibitory concentration (IC50) is < 10 nM.

For `Cn1cc(-c2nc(C(=O)NS(=O)(=O)c3ccc(N4CCN(CC5=C(c6ccc(Cl)cc6)CC(C)(C)CC5)CC4)cc3Oc3cnc4[nH]ccc4c3)ccc2F)cn1` [Example 63, N-[4-[4-[[2-(4-Chlorophenyl)-4,4-dimethylcyclohexen-1-yl]methyl]piperazin-1-yl]-2-(1H-pyrrolo[2,3-b]pyridin-5-yloxy)phenyl]sulfonyl-5-fluoro-6-(1-methylpyrazol-4-yl)pyridine-2-carboxamide], the half-maximal inhibitory concentration (IC50) lay in the range of 10 to 100 nM.

With `CC1(C)CCC(CN2CCN(c3ccc(S(=O)(=O)NC(=O)c4ccc5ccsc5n4)c(Oc4cnc5[nH]ccc5c4)c3)CC2)=C(c2ccc(Cl)cc2)C1` [Example 92, N-[4-[4-[[2-(4-chlorophenyl)-4,4-dimethylcyclohexen-1-yl]methyl]piperazin-1-yl]-2-(1H-pyrrolo[2,3-b]pyridin-5-yloxy)phenyl]sulfonylthieno[2,3-b]pyridine-6-carboxamide], the half-maximal inhibitory concentration (IC50) lay in the range of 100 to 1000 nM.

On to `COc1cc(-c2nc(C(=O)NS(=O)(=O)c3ccc(N4CCN(CC5=C(c6ccc(Cl)cc6)CC(C)(C)CC5)CC4)cc3Oc3cnc4[nH]ccc4c3)ccc2F)ccn1` [Example 62, N-[4-[4-[[2-(4-Chlorophenyl)-4,4-dimethylcyclohexen-1-yl]methyl]piperazin-1-yl]-2-(1H-pyrrolo[2,3-b]pyridin-5-yloxy)phenyl]sulfonyl-5-fluoro-6-(2-methoxypyridin-4-yl)pyridine-2-carboxamide], for which the 50% inhibitory concentration (IC50) was 100 to 1000 nM.

For `CCNc1c([N+](=O)[O-])cc(C(=O)NS(=O)(=O)c2ccc(N3CCN(CC4=C(c5ccc(Cl)cc5)CC(C)(C)CC4)CC3)cc2Oc2cnc3[nH]ccc3c2)c(Cl)c1C` [Example 99, 2-chloro-N-[4-[4-[[2-(4-chlorophenyl)-4,4-dimethylcyclohexen-1-yl]methyl]piperazin-1-yl]-2-(1H-pyrrolo[2,3-b]pyridin-5-yloxy)phenyl]sulfonyl-4-(ethylamino)-3-methyl-5-nitrobenzamide], the IC50 lay in the range of 10 to 100 nM.

For the molecule `CNc1c([N+](=O)[O-])cc(C(=O)NS(=O)(=O)c2ccc(N3CCN(CC4=C(c5ccc(Cl)cc5)CC(C)(C)CC4)CC3)cc2Oc2cnc3[nH]ccc3c2)c(Cl)c1C` [Example 98, 2-chloro-N-[4-[4-[[2-(4-chlorophenyl)-4,4-dimethylcyclohexen-1-yl]methyl]piperazin-1-yl]-2-(1H-pyrrolo[2,3-b]pyridin-5-yloxy)phenyl]sulfonyl-3-methyl-4-(methylamino)-5-nitrobenzamide], the 50% inhibitory concentration (IC50) lay in the range of 10 to 100 nM.

Turning to `Cc1cc([N+](=O)[O-])cc(C(=O)NS(=O)(=O)c2ccc(C3=CCN(CC4=C(c5ccc(Cl)cc5)CC(C)(C)CC4)CC3)cc2Oc2cnc3[nH]ccc3c2)n1` [Example 64, N-[4-[1-[[2-(4-Chlorophenyl)-4,4-dimethylcyclohexen-1-yl]methyl]-3,6-dihydro-2H-pyridin-4-yl]-2-(1H-pyrrolo[2,3-b]pyridin-5-yloxy)phenyl]sulfonyl-6-methyl-4-nitropyridine-2-carboxamide], the half-inhibitory concentration (IC50) is > 1000 nM.

For `CC1(C)CCC(CN2CCN(c3ccc(S(=O)(=O)NC(=O)c4ccc5c(c4)CCCO5)c(Oc4cnc5[nH]ccc5c4)c3)CC2)=C(c2ccc(Cl)cc2)C1` [Example 74, N-[4-[4-[[2-(4-chlorophenyl)-4,4-dimethylcyclohexen-1-yl]methyl]piperazin-1-yl]-2-(1H-pyrrolo[2,3-b]pyridin-5-yloxy)phenyl]sulfonyl-3,4-dihydro-2H-chromene-6-carboxamide], the IC50 is 100 to 1000 nM.
